Data published in patent US12146874B2, “Microtentacle imaging in patient tumor samples” (University of Maryland, Baltimore, priority 2014, dated 2024).

Assays:
[1] = tested on: patient-derived cells; experiment: McTN and stem cell responses of patient-derived cells to drugs (Example 4); assay type: cell-based, human; details: concentration listed in Table 2, 30 minutes, vs vehicle 0.1% DMSO
Protocol: Patient-derived cells are treated with either vehicle (0.1% DMSO) or each of the drugs in Table 2 at the indicated concentration for 30 minutes and then analyzed for McTN incidence.

[2] = tested on: nonmetastatic SkBr3 cells; experiment: McTN scoring in detached SkBr3 cells, confocal microscopy for tubulin localization; assay type: cell-based, Human; details: Jas 500 nM, Taxol 1.2 μM, McTNs scored blindly, 3 expts
From the text: FIG. 4. Targeting cell division can increase McTNs. […] (Bars=mean+S.D from 3 expts. with McTNs scored blindly).
Genetic alterations and chemotherapies that stabilize tubulin can increase McTNs. Actin-disrupting drugs, such as jasplakinolide (Jas) are currently being developed as therapies to reduce tumor cell division and migration (Takeuchi H, Ara G, Sausville E A, Teicher B (1998). Jasplakinolide: interaction with radiation and hyperthermia in human prostate carcinoma and Lewis lung carcinoma. Cancer chemotherapy and pharmacology 42: 491-496). […] Dissemination and growth of cancer cells in metastatic sites. […] We have published that genetic alterations which promote McTNs (FIG. 2B) increase CTC lung retention in living mice (Balzer E M, Whipple R A, Thompson K, Boggs A E, Slovic J, Cho E H et al (2010). c-Src differentially regulates the functions of microtentacles and invadopodia. Oncogene 29: 6402-6408; Matrone M A, Whipple R A, Thompson K, Cho E H, Vitolo M I, Balzer E M et al (2010). Metastatic breast tumors express increased tau, which promotes microtentacle formation and the reattachment of detached breast tumor cells. Oncogene 29: 3217-3227).

[3] = tested on: fresh patient tumor cells and tumorgrafts; experiment: McTN drug response of fresh patient samples and tumorgrafts in the microfluidic device (Aim 3b); details: concentration listed in Table 4, 60 minutes, media exchange in microfluidic channels
Protocol: An automated microscope stage will collect images from each channel every 5 minutes across the one hour drug treatment.
Strategy and Analysis: The device prioritized from subaim 2a will be used to analyze fresh patient samples as well as the resulting tumorgrafts from 40 patients during the three years of the project. McTN images collected from each cell sample will be analyzed with a custom MatLab algorithm developed for this assay that can automatically identify McTNs but also score metrics that were previously not possible to measure, such as the average number of McTNs per cell (FIG. 12). […] Drugs will be added by media exchange across the six microfluidic channels at the concentrations listed in Table 4 for 60 minutes, which each affect McTNs in 1 hr.

[4] = tested on: MDA-436 cells; experiment: Automated McTN analysis by confocal microscopy; assay type: cell-based; details: at least 10 random cells
From the text: FIG. 24. Automated McTN analysis. […] A gradient vector flow snake algorithm was used to define the cell edges and a local curvature maxima effectively identified McTN ends (yellow diamonds). […] This automated cell shape analysis will also enable calculations of average McTN length, curvature, etc. that will yield more multi-dimensional data for McTN studies.

SMILES	Predicted stemness & McTN effect [1]	Predicted stemness & McTN effect [3]	further results
O=S(=O)(c1cccc2cnccc12)N1CCCNCC1 [Fasudil]	Increase	–	–
CN(C)S(=O)(=O)c1ccc2c(c1)/C(=C/c1cc3c([nH]1)CCCC3)C(=O)N2 [SU6656]	Increase	–	–
CC(=O)O[C@@]12CO[C@@H]1C[C@H](O)[C@@]1(C)C(=O)[C@H](O)C3=C(C)[C@@H](OC(=O)[C@H](O)[C@@H](NC(=O)OC(C)(C)C)c4ccccc4)C[C@@](O)([C@@H](OC(=O)c4ccccc4)[C@H]21)C3(C)C [Docetaxel]	Increase	–	–
C/C1=C\[C@H](C)C[C@H](C)OC(=O)C[C@H](c2ccc(O)cc2)NC(=O)[C@@H](Cc2c(Br)[nH]c3ccccc23)N(C)C(=O)[C@H](C)NC(=O)[C@@H](C)C1 [Jazplakinolide, Jasplakinolide]	Decrease	–	levels of McTNs [2]: strongly promote McTNs; levels of McTNs ([2]; listed as Jas): increases levels of McTNs dramatically
CC[C@]1(O)C[C@@H]2CN(CCc3c([nH]c4ccccc34)[C@@](C(=O)OC)(c3cc4c(cc3OC)N(C)[C@H]3[C@@](O)(C(=O)OC)[C@H](OC(C)=O)[C@]5(CC)C=CCN6CC[C@]43[C@@H]65)C2)C1 [Vinblastine]	Decrease	Decrease	–
O=S(=O)(c1cccc2c(I)cccc12)N1CCCNCC1 [ML-7]	Decrease	–	–
C/C(=C\c1csc(C)n1)[C@@H]1C[C@@H]2O[C@]2(C)CCC[C@H](C)[C@H](O)[C@@H](C)C(=O)C(C)(C)[C@@H](O)CC(=O)N1 [Ixabepilone]	Increase	Increase	–
C=C1C(=O)O[C@@H]2/C=C(\C)CC/C=C(\C)CC[C@@H]12 [Costunolide]	Decrease	–	–
CC(=O)O[C@H]1C(=O)[C@@]2(C)[C@H]([C@H](OC(=O)c3ccccc3)[C@]3(O)C[C@H](OC(=O)[C@H](O)[C@@H](NC(=O)c4ccccc4)c4ccccc4)C(C)=C1C3(C)C)[C@]1(OC(C)=O)CO[C@@H]1C[C@@H]2O [Paclitaxel]	Increase	Increase	levels of McTNs [2]: strongly promote McTNs; levels of McTNs ([2]; listed as Paclitaxel-Taxol): increases levels of McTNs dramatically; average number of McTNs per cell ([4]; paclitaxel 1 μM vs vehicle 0.1% DMSO): increases McTNs, but this does not reach significance
COc1cc(/C=C/C(=O)CC(=O)/C=C/c2ccc(O)c(OC)c2)ccc1O [Curcumin]	–	Decrease	–
COc1cc2c(c(OC)c1OC)-c1ccc(OC)c(=O)cc1[C@@H](NC(C)=O)CC2 [Colchicine]	Decrease	Decrease	average number of McTNs per cell ([4]; colchicine 50 μM vs vehicle 0.1% DMSO): significantly reduces the average number of McTNs per cell
C[C@@H](N)[C@H]1CC[C@H](C(=O)Nc2ccncc2)CC1 [Y-27632]	Increase	–	–
